This is an account of results in paper PMC4239610, “A Peptide Derived from G0/G1 Switch Gene 2 Acts as Noncompetitive Inhibitor of Adipose Triglyceride Lipase” (The Journal of Biological Chemistry, 2014).

Data set [1] has as its system TG hydrolase activity of WAT lysates from WT animals. Briefly: TG hydrolase activity of WAT lysates of overnight fasted WT mice. Type of data set: biochemical, mouse. Here is the method: (§1) Adipose tissue samples from overnight fasted wild-type and Atgl-KO mice were washed in PBS (137 mM NaCl, 2.7 mM KCl, 10 mM Na2HPO4, 2 mM KH2PO4) containing 1 mM EDTA and homogenized on ice in sucrose solution (see above) using an Ultra Turrax (IKA, Staufen, Germany).
FIGURE 4.

Data set [2] relates to WAT TG hydrolase activity derived from Atgl-KO mice. Briefly: TG hydrolase activity of WAT lysates of Atgl-KO mice. Type of data set: biochemical, mouse. The note with it: overnight fasted, 1.4 μM hGW2052, 40 μM Atglistatin, Fig. 4A. Here is the method:
as §1
FIGURE 4.

The next data set has as its system ATGL. The note with it: cited from earlier work. An excerpt:
Extensive research on the physiological role of ATGL has identified complex regulatory mechanisms for its activity on the transcriptional and post-translational level ([12], [13]). Direct protein-protein interaction of ATGL with the protein comparative gene identification 58 (CGI-58) increases ATGL activity up to 20-fold ([14]). Inhibition of ATGL due to direct interaction with the small, 103-amino acid protein G0/G1 switch gene 2 (G0S2) was discovered in 2010 and confirmed using human and murine proteins ([15][–][21]). The highest G0S2 expression is found in adipose tissues, but it is also pr ... || Activation of ATGL by CGI-58 is considered as fasting response upon β-adrenergic stimulation and phosphorylation of PKA ([12]). Recent studies have strengthened the role of G0S2 as the so-called master regulator of basal and stimulated lipolysis ([27]). mRNA levels of G0S2 respond strongly to hormonal stimuli, yet the dose-dependent inhibition of ATGL by G0S2 itself is reported to be independent of phosphorylation events ([18], [20], [21], [28], [29]). Thus, regulation of the expression levels of G0S2, and consequently the protein concentration, resembles a potent mean to regulate lipid mobili ... || Next, we investigated the specificity of the peptide hGW2052. ATGL and HSL together account for more than 95% of intracellular TG hydrolase activity in white adipose tissue (WAT) ([48]). For both enzymes, small molecule inhibitors are available. […] WAT lysates of WT and Atgl-KO mice were tested for TG hydrolase activity in the presence of Atglistatin, Hi 76–0079, and hGW2052. Addition of the ATGL inhibitors hGW2052 or Atglistatin redu ... || (+ 3 further places)

For data set [3] the following is noted: cited from earlier work. The source says:
Adipose triglyceride lipase (ATGL) hydrolyzes TGs into diacylglycerols and FAs and is required for efficient intracellular lipolysis ([7]). Global inactivation of ATGL activity leads to massive TG accumulation in all tissues, including the heart of Atgl knock-out mice ([8]). Accordingly, patients with ATGL deficiency suffer from cardiac and skeletal muscle myopathy and require heart transplants at a relatively young age ([9]). However, genetic and small molecule-mediated inactivation of ATGL is also associated with beneficial effects on plasma lipid parameters and insulin sensitivity; Atgl-KO ... || Genetic disruption of Atgl results in severe heart defects due to massive TG accumulation in cardiac muscle ([8], [55]). Thus, the application of a synthetic, competitive ATGL inhibitor, such as Atglistatin, as a therapeutic tool appears limited. […] Th ...

In another data set the test system is HSL. The following applies: ref [10], [48], [49]; cited from earlier work. Here is the method:
Next, we investigated the specificity of the peptide hGW2052. ATGL and HSL together account for more than 95% of intracellular TG hydrolase activity in white adipose tissue (WAT) ([48]). For both enzymes, small molecule inhibitors are available. […] WAT lysates of WT and Atgl-KO mice were tested for TG hydrolase activity in the presence of Atglistatin, Hi 76–0079, and hGW2052. Addition of the ATGL inhibitors hGW2052 or Atglistatin redu ... || To evaluate the specificity of the inhibitory peptide for ATGL, we analyzed the effect of hGW2052 on the activities of phospholipases, intracellular lipases, and extracellular lipases. ATGL belongs to the patatin domain containing family of proteins (PNPLA). […] Although PNPLA family members show high sequence conservation within their common patatin domain, no effects on lysophospholipase activities of PNPLA6 or PNPLA7 could b ...

The test system of data set [4] is mATGL. Put plainly: TG hydrolase activity, E. coli expressed mATGL, CGI-58 activated, hG0S2 truncations (Fig. 1C-E). Type of data set: biochemical, mouse. The following applies: mATGL E. coli extract (50 μg), 2.5 μg purified mCGI-58, 30 μg lysate of E. coli expressing hG0S2 variant, [3H]triolein, triplicates. Here is the method:
(§2) Protein concentrations were determined as described below.
(§3) FIGURE 1. Minimal sequence requirements of human G0S2 for ATGL inhibition. A, graphical representation of full-length and shortened versions of hG0S2, those capable of inhibiting ATGL activity are illustrated in black. The largely hydrophobic sequence stretch from Val-28 to Met-42 is depicted in light gray. B–E, activity assays were performed in the presence of CGI-58 as indicated by an asterisk (ATGL*). G0S2 and variants thereof were expressed in E. coli and added as cell lysates. Overexpressed mATGL from E. coli lysates was used for all assays with the exception of the assay shown in B. B, inhibition of TG hydrolase activity of mATGL containing COS-7 cell extracts by WT and C-terminally truncated hG0S2 variants. C, inhibition of TG hydrolase activity of mATGL by WT and C-terminally truncated hG0S2 variants. D, inhibition of TG hydrolase activity of mATGL by WT hG0S2 and variants with N-terminal deletions. E, effect of different N- and C-terminal truncations in hG0S2 on mATGL activity. The fusion tag smt3 is shown as control.

Data set [5] has as its system mATGL. Put plainly: TG hydrolase activity, COS-7 cell extracts containing mATGL, CGI-58 activated (Fig. 1B). Type of data set: biochemical, mouse. The following applies: COS-7 cell extract with mATGL, hG0S2 variants as E. coli cell lysates (30 μg), [3H]triolein substrate, triplicates. Here is the method:
as §2
Cells were harvested 48 h after transfection. […] Protein concentrations were determined as described below.
as §3

Setting [6] is: single administration to mice, ref [10].

In the case of `CN(C)C(=O)Nc1cccc(-c2ccc(N(C)C)cc2)c1` [Atglistatin], in data set [1] (40 μM Atglistatin, Fig. 4A), the “reduction of TG hydrolase activity of WAT lysates” value is listed as 49%. In addition, the “inhibition of WAT TG hydrolase activity, Atgl-KO (result in words)” value in data set [2] was “Neither hGW2052 nor Atglistatin inhibited WAT TG hydrolase activity derived from Atgl-KO mice”. Further, the “IC50 for ATGL (in words)” value in the data set on ATGL (Atglistatin elsewhere ref [10]) was “low micromolar range”. In the data set on ATGL (ref [10], [13]), the “dependence of ATGL inhibition on CGI-58” value is “independent of the presence of CGI-58” and the “mode of ATGL inhibition” value is “inhibits ATGL in a competitive manner”. Also, the “specificity of inhibition (in words), ATGL” value with ATGL (ref [10], [48], [49]) was “act as specific inhibitors for ATGL and HSL, respectively”. Also, the “plasma FA and TG concentrations” value in data set [3] (WT mice, ref [8], [10]) is “reduced plasma FA and TG concentrations”. Further, in data set [3] (setting [6]), the “TG accumulation in tissues” value is recorded as “TG accumulation in liver but not the heart”; the “tissue accumulation of the inhibitor” value is “accumulation of the inhibitor in liver and adipose tissues”.
As for `CN(C(=O)n1cncn1)c1ccccc1` [Hi 76-0079, N-methyl-phenyl carbamoyl triazole], in data set [1] (25 μM Hi 76-0079, Fig. 4A), the “reduction of TG hydrolase activity of WAT lysates” value was determined as 67%. Moreover, in the data set with HSL, the “specificity of inhibition (in words), HSL” value is “act as specific inhibitors for ATGL and HSL, respectively”.
The term IC50 denotes the concentration that inhibits the measured activity by half. On to `CCCCCCCC/C=C\CCCCCCCC(=O)SCCNC(=O)CCNC(=O)[C@H](O)C(C)(C)COP(=O)(O)OP(=O)(O)OC[C@H]1O[C@@H](n2cnc3c(N)ncnc32)[C@H](O)[C@@H]1OP(=O)(O)O` [oleoyl-CoA], for which, in the data set with ATGL (ref [13]), the 50% inhibitory concentration (IC50) is 33 µM.
Take “hG0S2 Gly-30–Ala-52: N- and C-terminally truncated hG0S2, Gly-30–Ala-52 (GSVLALFGVVLGLMETVCSPFTA; UniProt P27469 30-52, looked up, fragment)”: in the data set on mATGL [4], the “inhibition of TG hydrolase activity (result in words)” value (from here on “inhibition of TG hydrolase activity”) is given as “had lost all inhibitory activity”.
Same read-out and setting: then “hG0S2 Leu-10–Ala-52: N- and C-terminally truncated hG0S2, Leu-10–Ala-52 (LAKEMMAQKRKGKMVKLYVLGSVLALFGVVLGLMETVCSPFTA; UniProt P27469 10-52, looked up, fragment)”, with “fully retained their activity to inhibit ATGL”.
On to “hG0S2 Lys-20–Met-43: N- and C-terminally truncated hG0S2, Lys-20–Met-43 (KGKMVKLYVLGSVLALFGVVLGLM; UniProt P27469 20-43, looked up, fragment)”, for which the “inhibition of TG hydrolase activity” value in the data set with mATGL [4] is on record as “neither hG0S2 Tyr-27–Ala-52 nor hG0S2 Lys-20–Met-43 exhibited full inhibitory capacity”; in the data set on mATGL [4] (listed as Lys-20–Met-43) it was “did not result in G0S2 variants that were able to inhibit ATGL efficiently”.
Take “hG0S2 truncated at residue Leu-40: hG0S2 truncated at residue Leu-40 (C-terminal truncation) (METVQELIPLAKEMMAQKRKGKMVKLYVLGSVLALFGVVL; UniProt P27469 1-40, looked up, fragment)”: the “inhibition of TG hydrolase activity” value in the data set with mATGL [5] is on record as “Inhibition was significantly reduced”.
As for “hG0S2_1–43: C-terminally truncated hG0S2 variant Met-1–Met-43 (METVQELIPLAKEMMAQKRKGKMVKLYVLGSVLALFGVVLGLM; UniProt P27469 1-43, looked up, fragment)”, the figures for the “inhibition of TG hydrolase activity” value in the data set on mATGL [4] and with mATGL [4] (listed as Met-1–Met-43) were “still exerts the full inhibitory effect on ATGL” and “fully able to inhibit ATGL”, respectively.
